SMILES strings stand for the structures.

Experiment [1] relates to Akt substrates GSK3α/β, TSC2, and FoxO1/O3a in L6 myotubes. Put plainly: Akt substrate phosphorylation in L6 myotubes (Western blot). As to conditions: for phosphorylation of Akt and its substrates: insulin. It counts as cell-based.
Experiment [2] deals with Akt phosphorylation in SIN1−/− MEFs. The experiment in a line: Akt phosphorylation in primary SIN1−/− MEFs (Western blot). The class given is cell-based, mouse. Conditions: insulin, PIK-90 625 nM, BX-795 10 μM. For orientation: A western blot detects proteins with antibodies after separation by electrophoresis.
Experiment [3] deals with S6K, S6 and 4EBP1 phosphorylation in L6 myotubes. Put plainly: mTORC1 substrate phosphorylation in L6 myotubes (Western blot). As to conditions: Figure S3.
Experiment [4] concerns the target PKC-beta (Homo sapiens, UniProt P05771). As to conditions: in vitro, purified protein.
Method: (§1) Phosphorylation of histone H1 (4 μM) by PKC was assayed in a buffer containing 200 ng/ml recombinant kinase, 25 mM HEPES pH 7.5, 10 mM MgCl2, 5 mM ß-glycerol phosphate, 0.05 mg/ml phosphatidylserine, 0.03% Triton X-100, 0.5 mg/ml BSA, 2.5 mM DTT, 100 μM CaCl2, 1 μM PMA, 10 μM ATP, and 15 μCi/ml of γ-^32P-ATP. Inhibitors were tested in a four-fold dilution series from 10 μM to 600 pM, and four measurements were made at each concentration. The kinase reaction was terminated by spotting onto nitrocellulose, which was washed 5 times with 1 M NaCl/1% phosphoric acid. The radioactivity remaining on the nitrocellulose sheet was quantified by phosphorimaging, and IC50 values were determined by fitting the data to a sigmoidal dose-response curve using the Prism software package.
The target of experiment [5] is T1, PDK1 (Homo sapiens, UniProt O15530).
T1 sequence (O15530 1-556): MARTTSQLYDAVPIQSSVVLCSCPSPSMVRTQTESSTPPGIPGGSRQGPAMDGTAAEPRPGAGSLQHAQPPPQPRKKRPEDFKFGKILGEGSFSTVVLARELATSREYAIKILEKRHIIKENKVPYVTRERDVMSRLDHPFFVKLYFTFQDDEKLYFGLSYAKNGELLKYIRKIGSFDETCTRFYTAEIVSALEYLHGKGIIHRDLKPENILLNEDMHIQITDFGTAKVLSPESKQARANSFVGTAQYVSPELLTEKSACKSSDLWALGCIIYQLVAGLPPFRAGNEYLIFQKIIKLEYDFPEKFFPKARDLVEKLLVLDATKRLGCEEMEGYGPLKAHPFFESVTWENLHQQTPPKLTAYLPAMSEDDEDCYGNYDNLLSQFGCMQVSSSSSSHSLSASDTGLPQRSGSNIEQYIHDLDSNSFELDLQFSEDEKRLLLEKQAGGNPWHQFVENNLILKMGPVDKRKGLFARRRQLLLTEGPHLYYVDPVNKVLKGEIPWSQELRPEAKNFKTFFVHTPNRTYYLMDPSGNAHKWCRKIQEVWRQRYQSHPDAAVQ
The experiment in a line: biochemical.

Experiment [6] has as its target PKCβI (Homo sapiens, UniProt P05771). The experiment in a line: biochemical.
Method: as §1
Experiment [7] concerns the target PKCβII (Homo sapiens, UniProt P05771). Put plainly: biochemical.
Method: as §1
For experiment [8], the system named is pT308 of S473A Akt in HEK293 cells. It counts as cell-based. Conditions: HEK293, insulin, 2.5 μM PP242.
Experiment [9] concerns new protein synthesis in primary MEFs. Put plainly: 35S labeling of new protein synthesis. The class given is cell-based, mouse. Conditions: overnight. As to the method: Primary MEFs grown to 70% confluence in six-well plates were incubated overnight in either 10% Serum (Steady State), kinase inhibitors in 10% serum, or 0.1% serum (starved). Cells were then washed once with DMEM lacking cysteine and methionine (DMEM-noS), and the medium was replaced with DMEM-noS including dialyzed serum and kinase inhibitors as indicated. After incubation for 1 h, 50 μCi of Expre^35S^35S (NEN) was added to each well and the cells were labeled for 4 h. Cells were washed once with ice-cold PBS, and lysed as described above for Western blotting. Following separation by SDS-PAGE, and transfer to nitrocellulose, ^35S-labeled proteins were visualized by autoradiography with film. For quantitation, the membrane was exposed to a phosphorimager screen and the resulting image was quantified in ImageJ. Differences in ^35S incorporation were analyzed for statistical significance by one-way ANOVA with Tukey's post test using the Prism software package.

In experiment [10] the test system is Akt, S6 and 4EBP1 phosphorylation in fat, skeletal muscle, and liver. The experiment in a line: In vivo drug treatment and Western blotting of insulin signaling. Details: species or system C57BL/6 mice. Conditions: mice; for S6 phosphorylation, all tissues examined / phosphorylation of 4EBP1 on T36/45 and S65, all tissues examined: rapamycin 5 mg/kg or PP242 20 mg/kg IP. Here is the method:
Drugs were prepared in 100 μl of vehicle containing 20% DMSO, 40% PEG-400, and 40% saline. Six-wk-old male C57BL/6 mice were fasted overnight prior to drug treatment. […] 15 min after the insulin injection, the mice were killed by CO2 asphyxiation followed by cervical dislocation. Tissues were harvested and frozen on liquid nitrogen in 200 μl of cap lysis buffer. The frozen tissue was thawed on ice, manually disrupted with a mortar and pestle, and then further processed with a micro tissue-homogenizer (Fisher PowerGen 125 with Omni-Tip probe). Protein concentration of the cleared lysate was measured by Bradford assay and 5–10 μg of protein was analyzed by Western blot as described above.

Experiment [11] deals with Akt phosphorylation in wild-type MEFs. The experiment in a line: Akt phosphorylation in primary wild-type MEFs (Western blot). The class given is cell-based, mouse. As to conditions: long-term rapamycin (100 nM, 24 h).
The test system of experiment [12] is primary wild-type MEFs. The experiment in a line: Cell proliferation assay (resazurin), wild-type MEFs. It counts as cell-based, mouse. As to conditions: cultured 3 d, resazurin fluorescence. A general note: The colour change of resazurin is a common sign of viable cells or microbes.
Method: (§2) Wild-type and SIN1^−/− MEFs were plated in 96-well plates at approximately 30% confluence and left overnight to adhere.
Experiment [13] relates to 4EBP1 bound to eIF4E in L6 myotube lysates. Put plainly: Cap pull-down assay (m7GTP beads). It counts as cell-based.
Method: L6 myotubes from one well of a six-well plate were lysed in 300 μl of cap lysis buffer as described above. 50 μl of detergent-free cap lysis buffer and 20 μl of pre-washed cap beads were added to 150 μl of cleared lysate and incubated at 4 °C overnight with tumbling. The beads were washed twice with 400 μl of cap wash buffer (cap lysis buffer with 0.5% NP-40 instead of 1% NP-40) and twice with 500 μl of PBS. The beads were boiled in SDS-PAGE sample buffer and the retained proteins analyzed by Western blot. All antibodies were from Cell Signaling Technologies except for the anti-eIF4E antibody, which was from BD Biosciences.
Experiment [14] concerns cap-dependent and IRES-dependent translation in primary MEFs. Put plainly: Bicistronic reporter assay. The class given is cell-based, mouse. Conditions: overnight, 10% serum. A general note: Reporter assays use an easily measured gene product as a stand-in for the process of interest.
Method: Primary MEFs were transfected with a bicistronic reporter [54] containing a viral IRES using Lipofectamine 2000 according to the manufacturers protocol. At 2 d post transfection, cells were treated overnight with compounds as indicated or starved of serum. The next day, Renilla and Firefly luciferase activity were measured using the Dual-Luciferase kit (Promega). Differences in the ratio of Renilla to Firefly luciferase signals were analyzed for statistical significance by one-way ANOVA with Tukey's post test using the Prism software package.
For experiment [15], the system named is SIN1−/− MEFs. Put plainly: Cell proliferation assay (resazurin), SIN1−/− MEFs. Conditions: compared with PP242.
Method: as §2

Chain of PKCβI (P05771 whole entry): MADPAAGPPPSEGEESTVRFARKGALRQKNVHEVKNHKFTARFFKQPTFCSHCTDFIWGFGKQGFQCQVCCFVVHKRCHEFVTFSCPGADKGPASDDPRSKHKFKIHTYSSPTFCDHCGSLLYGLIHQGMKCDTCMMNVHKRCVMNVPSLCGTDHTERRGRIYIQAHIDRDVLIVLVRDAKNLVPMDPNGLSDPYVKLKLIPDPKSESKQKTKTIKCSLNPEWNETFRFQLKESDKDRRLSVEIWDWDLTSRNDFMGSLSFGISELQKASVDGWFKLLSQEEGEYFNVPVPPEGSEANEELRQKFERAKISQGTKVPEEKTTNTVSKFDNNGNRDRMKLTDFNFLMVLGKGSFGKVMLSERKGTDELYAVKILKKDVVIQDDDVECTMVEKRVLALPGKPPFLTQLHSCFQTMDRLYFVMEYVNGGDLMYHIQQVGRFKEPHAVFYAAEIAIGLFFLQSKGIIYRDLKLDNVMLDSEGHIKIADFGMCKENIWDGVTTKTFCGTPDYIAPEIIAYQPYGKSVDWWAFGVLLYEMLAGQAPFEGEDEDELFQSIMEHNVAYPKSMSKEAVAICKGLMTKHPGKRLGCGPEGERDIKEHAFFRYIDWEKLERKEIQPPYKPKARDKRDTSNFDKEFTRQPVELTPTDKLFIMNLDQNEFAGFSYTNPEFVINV
Chain of PKC-beta (P05771 2-621 limits assumed): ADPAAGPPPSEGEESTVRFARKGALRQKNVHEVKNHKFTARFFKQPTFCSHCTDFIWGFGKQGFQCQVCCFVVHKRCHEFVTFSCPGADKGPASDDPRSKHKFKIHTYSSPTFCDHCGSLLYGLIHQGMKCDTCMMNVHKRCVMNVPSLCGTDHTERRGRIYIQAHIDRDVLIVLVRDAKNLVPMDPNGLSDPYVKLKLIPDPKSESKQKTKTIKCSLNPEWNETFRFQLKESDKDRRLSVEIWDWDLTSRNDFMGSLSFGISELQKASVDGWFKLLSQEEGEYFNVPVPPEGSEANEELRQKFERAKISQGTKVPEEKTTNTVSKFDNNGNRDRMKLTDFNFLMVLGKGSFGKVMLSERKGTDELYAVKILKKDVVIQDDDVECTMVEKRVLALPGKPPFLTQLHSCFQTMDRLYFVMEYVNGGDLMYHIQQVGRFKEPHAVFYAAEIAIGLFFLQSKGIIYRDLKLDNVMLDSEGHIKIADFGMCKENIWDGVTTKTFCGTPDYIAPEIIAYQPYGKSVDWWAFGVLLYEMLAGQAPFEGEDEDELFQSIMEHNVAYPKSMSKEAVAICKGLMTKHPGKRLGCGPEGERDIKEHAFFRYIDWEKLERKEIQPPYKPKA
Chain of PKCβII (P05771 1-673 isoform P05771-2): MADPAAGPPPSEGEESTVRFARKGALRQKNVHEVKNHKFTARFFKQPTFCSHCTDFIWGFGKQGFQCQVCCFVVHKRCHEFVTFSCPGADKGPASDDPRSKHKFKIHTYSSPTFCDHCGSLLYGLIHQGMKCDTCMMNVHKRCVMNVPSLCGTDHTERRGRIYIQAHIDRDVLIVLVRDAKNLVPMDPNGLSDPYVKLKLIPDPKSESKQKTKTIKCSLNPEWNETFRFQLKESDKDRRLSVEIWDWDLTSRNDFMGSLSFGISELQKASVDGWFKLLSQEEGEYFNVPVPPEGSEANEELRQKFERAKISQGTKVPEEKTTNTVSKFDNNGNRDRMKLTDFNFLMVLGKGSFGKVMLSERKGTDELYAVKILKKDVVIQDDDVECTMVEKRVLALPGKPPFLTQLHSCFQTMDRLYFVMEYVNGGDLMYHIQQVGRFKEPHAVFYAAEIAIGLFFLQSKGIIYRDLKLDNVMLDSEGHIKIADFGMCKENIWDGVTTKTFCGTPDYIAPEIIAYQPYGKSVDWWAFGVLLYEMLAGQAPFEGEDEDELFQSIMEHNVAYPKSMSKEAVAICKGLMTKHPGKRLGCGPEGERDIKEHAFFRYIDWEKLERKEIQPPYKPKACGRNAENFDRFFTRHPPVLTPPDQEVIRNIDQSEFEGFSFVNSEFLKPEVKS

As to `O=c1[nH]c2ccccc2n1C1CCN(Cc2ccc(-c3nc4cc5nc[nH]c5cc4nc3-c3ccccc3)cc2)CC1` [Akti-1/2], in [1], the “FoxO1/O3a phosphorylation at T24/T32” value is “inhibits”; the “phosphorylation of Akt and its substrates” value is listed as “completely inhibited”.

As to `O=C(NCCCNc1nc(Nc2cccc(NC(=O)N3CCCC3)c2)ncc1I)c1cccs1` [BX-795], the “phosphorylation of Akt T308” value in experiment [2] is on record as “blocked”.

`COc1ccc2c(c1OC)N=C(NC(=O)c1cccnc1)N1CCN=C21` [PIK-90]: the “phosphorylation of Akt T308” value in [2] is on record as “blocked”. The “phosphorylation of Akt and its substrates” value in [1] was “completely inhibited”. The “phosphorylation of 4EBP1 at T36/45” value in experiment [3] was “did not reduce”.

A word on the IC50: it is the concentration needed to halve the response being measured. A lower IC50 goes with greater potency in that assay. On to `CC(C)n1nc(-c2cccc(C(=O)NC3=NCCS3)c2)c2c(N)ncnc21` [PP30], for which the “activity against PKC-beta” value in [4] is reported as “no activity”. Besides, the IC50 in experiment [5], in experiment [6] and in [7] was over 10 µM in each case.

`CC(C)n1nc(-c2cc3cc(O)ccc3[nH]2)c2c(N)ncnc21` [PP242]: in experiment [8], the “T308-P on S473A Akt” value is reported as “not inhibited”. In addition, the “phosphorylation of Akt T308” value in [2] was “no effect”. In addition, the “reduction of total protein synthesis” value in experiment [9] is on record as “about 30%”. Moreover, in experiment [10] (PP242 20 mg/kg IP, insulin), the “phosphorylation of Akt at S473 and T308 in fat and liver” value is given as “completely inhibit”; the “phosphorylation of Akt in skeletal muscle” value is “only partially able to inhibit”. Further, in experiment [10], the “S6 phosphorylation, all tissues examined” value was “fully inhibited”; the “phosphorylation of 4EBP1 on T36/45 and S65, all tissues examined” value is “effective at blocking”.

`CO[C@H]1C[C@@H]2CC[C@@H](C)[C@@](O)(O2)C(=O)C(=O)N2CCCC[C@H]2C(=O)O[C@H]([C@H](C)C[C@@H]2CC[C@@H](O)[C@H](OC)C2)CC(=O)[C@H](C)/C=C(\C)[C@@H](O)[C@@H](OC)C(=O)[C@H](C)C[C@H](C)/C=C/C=C/C=C/1C` [rapamycin]: in experiment [11], the “Akt S473-P” value is listed as “inhibited” and the “Akt T308-P” value is reported as “reduced”. Besides, in [12], the “proliferation of primary MEFs” value is recorded as “inhibited growth to the same extent”. The “insulin-stimulated release of 4EBP1 from eIF4E (retention on m7GTP beads)” value in [13] is “partial inhibition”. The “cap-dependent translation (renilla/firefly ratio)” value in experiment [14] was “did not have a statistically significant effect”. Besides, the “reduction of total protein synthesis” value in experiment [9] is on record as “does not have a significant effect”. For the same molecule, the “phosphorylation of Akt at S473 and T308, all tissues examined” value in experiment [10] (acute rapamycin 5 mg/kg IP, insulin) was “activated”. Besides, in [10], the “S6 phosphorylation, all tissues examined” value is listed as “fully inhibited”; the “phosphorylation of 4EBP1 on T36/45 and S65, all tissues examined” value is “did not block 4EBP1 phosphorylation as completely as PP242”. The “blocking cell proliferation of SIN1−/− MEFs” value in experiment [15] was “less effective at blocking cell proliferation than PP242”.

The record behind these values is PMC2637922, “Active-Site Inhibitors of mTOR Target Rapamycin-Resistant Outputs of mTORC1 and mTORC2” (PLoS Biology, 2009).
